Legend:
Type in all cases: in vivo
Amaranthus retroflexus = assay: greenhouse herbicidal test, post-emergence treatment; settings: post-emergence method, application rate 2000 g/ha, scale from 0 to 100, test period 2 to 4 weeks
Source text: (§1) The seeds of the test plants were sown separately for each species. For the post-emergence treatment, the test plants were first grown to a height of 3 to 15 cm, depending on the plant habit, and only then treated with the active ingredients which had been suspended or emulsified in water. For this purpose, the test plants were either sown directly and grown in the same containers, or they were first grown separately as seedlings and transplanted into the test containers a few days prior to treatment. Depending on the species, the plants were kept at 10-25° C. or 20-35° C., respectively. The test period extended over 2 to 4 weeks. During this time, the plants were tended, and their response to the individual treatments was evaluated. Evaluation was carried out using a scale from 0 to 100. 100 means no emergence of the plants, or complete destruction of at least the aerial moieties, and 0 means no damage, or normal course of growth. A good herbicidal activity is given at values of at least 70 and a very good herbicidal activity is given at values of at least 85. The plants used in the greenhouse experiments were of the following species: [table]

Setaria viridis = assay: as above; settings: post-emergence method, application rate 2000 g/ha, scale from 0 to 100, test period 2 to 4 weeks
Source text: as §1

ABUTH = assay: as above; settings: post-emergence method, application rate 2000 g/ha, scale from 0 to 100, test period 2 to 4 weeks
Source text: as §1, with “85.” for “85. The plants used in the greenhouse experiments were of the following species: [table]”

Alopecurus myosuroides = assay: as above; settings: post-emergence method, application rate 2000 g/ha, scale from 0 to 100, test period 2 to 4 weeks
Source text: as §1

Avena fatua = assay: as above; settings: post-emergence method, application rate 2000 g/ha, scale from 0 to 100, test period 2 to 4 weeks
Source text: as §1

Apera spica-venti = assay: greenhouse herbicidal test, pre-emergence treatment; settings: pre-emergence method, application rate 2000 g/ha, scale from 0 to 100, test period 2 to 4 weeks
Source text: (§2) The seeds of the test plants were sown separately for each species. For the pre-emergence treatment, the active ingredients, which had been suspended or emulsified in water, were applied directly after sowing by means of finely distributing nozzles. The containers were irrigated gently to promote germination and growth and subsequently covered with transparent plastic hoods until the plants had rooted. This cover caused uniform germination of the test plants, unless this had been impaired by the active ingredients. Depending on the species, the plants were kept at 10-25° C. or 20-35° C., respectively. The test period extended over 2 to 4 weeks. During this time, the plants were tended, and their response to the individual treatments was evaluated. Evaluation was carried out using a scale from 0 to 100. 100 means no emergence of the plants, or complete destruction of at least the aerial moieties, and 0 means no damage, or normal course of growth. A good herbicidal activity is given at values of at least 70 and a very good herbicidal activity is given at values of at least 85. The plants used in the greenhouse experiments were of the following species: [table]

Echinocloa crus-galli [1] = assay: as above; settings: pre-emergence method, application rate 2000 g/ha, scale from 0 to 100, test period 2 to 4 weeks
Source text: as §2

Matricaria inodora = assay: greenhouse herbicidal test, post-emergence treatment; settings: post-emergence method, application rate 2000 g/ha, scale from 0 to 100, test period 2 to 4 weeks
Source text: as §1

Echinocloa crus-galli [2] = assay: as above; settings: post-emergence method, application rate 2000 g/ha, scale from 0 to 100, test period 2 to 4 weeks
Source text: as §1

Compound	herbicidal activity against AMARE (Amaranthus retroflexus)	herbicidal activity against SETVI (Setaria viridis)	herbicidal activity against ABUTH (ABUTH)	herbicidal activity against ALOMY (Alopecurus myosuroides)	herbicidal activity against AVEFA (Avena fatua)	herbicidal activity against APESV (Apera spica-venti)	herbicidal activity against ECHCG (Echinocloa crus-galli [1])	herbicidal activity against MATIN (Matricaria inodora)	herbicidal activity against ECHCG (Echinocloa crus-galli [2])
Clc1cccnc1-c1cnc(C2CC2)nc1C=Cc1ccccc1 [Ex.37]	very good (a very good herbicidal activity is given at values of at least 85)	very good (a very good herbicidal activity is given at values of at least 85)	very good (a very good herbicidal activity is given at values of at least 85)						
Cc1occc1-c1nc(C2CC2)ncc1-c1ncccc1Cl [Ex.34]	very good (a very good herbicidal activity is given at values of at least 85)			very good (a very good herbicidal activity is given at values of at least 85)	good (A good herbicidal activity is given at values of at least 70)	very good (a very good herbicidal activity is given at values of at least 85)	very good (a very good herbicidal activity is given at values of at least 85)		
Cc1nc(C2CC2)ncc1-c1ncccc1Cl [Ex.01]	very good (a very good herbicidal activity is given at values of at least 85)							very good (a very good herbicidal activity is given at values of at least 85)	
OC(Cc1nc(C2CC2)ncc1-c1ncccc1Cl)c1cccs1 (centres unmarked) [Ex.33]	very good (a very good herbicidal activity is given at values of at least 85)								good (A good herbicidal activity is given at values of at least 70)
CC(O)Cc1nc(C2CC2)ncc1-c1ncccc1Cl (centres unmarked) [Ex.29]		very good (a very good herbicidal activity is given at values of at least 85)	good (A good herbicidal activity is given at values of at least 70)			very good (a very good herbicidal activity is given at values of at least 85)	very good (a very good herbicidal activity is given at values of at least 85)		
CCOC(=O)C(C)(C)c1nc(C2CC2)ncc1-c1ncccc1Cl [Ex.22]	very good (a very good herbicidal activity is given at values of at least 85)								
CCOC(=O)C(C)c1nc(C2CC2)ncc1-c1ncccc1Cl (centres unmarked) [Ex.21]	good (A good herbicidal activity is given at values of at least 70)					good (A good herbicidal activity is given at values of at least 70)			very good (a very good herbicidal activity is given at values of at least 85)
OC(Cc1nc(C2CC2)ncc1-c1ncccc1Cl)c1ccco1 (centres unmarked) [Ex.24]		good (A good herbicidal activity is given at values of at least 70)		very good (a very good herbicidal activity is given at values of at least 85)	good (A good herbicidal activity is given at values of at least 70)	very good (a very good herbicidal activity is given at values of at least 85)	very good (a very good herbicidal activity is given at values of at least 85)		
CCC(=O)Cc1nc(C2CC2)ncc1-c1ncccc1Cl [Ex.44]	good (A good herbicidal activity is given at values of at least 70)			very good (a very good herbicidal activity is given at values of at least 85)		very good (a very good herbicidal activity is given at values of at least 85)	very good (a very good herbicidal activity is given at values of at least 85)		

Reference: patent US20210345613A1, “HERBICIDAL PYRIMIDINE COMPOUNDS” (BASF SE, priority 2016, published 2021)
